ChEMBL document CHEMBL5584305, “Cladoic Acid, an Anti-Trypanosoma cruzi Polyketide from Cladosporium sp. TP-F2020” (J Nat Prod, 2024)
The source made the active and inactive calls. The rule behind the calls is not given here.

Key:
Staphylococcus aureus = test: Antimicrobial activity against Staphylococcus aureus FDA209P JC-1 at 100 microg/ml incubated for 20 hrs by liquid microculture method; type: functional, organism-based; conditions: dose 100.0 µg/ml
Trypanosoma cruzi [1] = test: Antitrypanosomal activity against Trypanosoma cruzi epimastigote assessed as inhibition of proliferation by measuring cellular ATP level incubated for 24 hrs by Cell Titer-Glo 2.0 assay; type: functional, organism-based
[2] = Cytotoxicity against mouse P388 cells at 100 uM; type: toxicity, cell-based
[3] = system: Agrobacterium radiobacter; test: Antimicrobial activity against Rhizobium radiobacter NBRC14554 at 100 microg/ml incubated for 20 hrs by liquid microculture method; type: functional, organism-based; conditions: dose 100.0 µg/ml
[4] = system: Colletotrichum gloeosporioides; test: Antimicrobial activity against Glomerella cingulata NBRC5907 at 100 microg/ml incubated for 20 hrs by liquid microculture method; type: functional, organism-based; conditions: dose 100.0 µg/ml
Escherichia coli = test: Antimicrobial activity against Escherichia coli NIHJ JC-2 at 100 microg/ml incubated for 20 hrs by liquid microculture method; type: functional, organism-based; conditions: dose 100.0 µg/ml
Trypanosoma cruzi [5] = test: Antitrypanosomal activity against Trypanosoma cruzi Tulahuen amastigotes infected in human HT-1080 cells assessed as inhibition of parasite growth incubated for 3 days by light microscopic analysis; type: functional, organism-based; conditions: HT-1080, 72 h
Trichophyton rubrum = test: Antimicrobial activity against Trichophyton rubrum NBRC5467 at 100 microg/ml incubated for 20 hrs by liquid microculture method; type: functional, organism-based; conditions: dose 100.0 µg/ml
Kocuria rhizophila = test: Antimicrobial activity against Kocuria rhizophila ATCC 9341 at 100 microg/ml incubated for 20 hrs by liquid microculture method; type: functional, organism-based; conditions: dose 100.0 µg/ml
Candida albicans = test: Antimicrobial activity against Candida albicans NBRC0197 at 100 microg/ml incubated for 20 hrs by liquid microculture method; type: functional, organism-based; conditions: dose 100.0 µg/ml
Saccharomyces cerevisiae = test: Antimicrobial activity against Saccharomyces cerevisiae S100 at 100 microg/ml incubated for 20 hrs by liquid microculture method; type: functional, organism-based; conditions: dose 100.0 µg/ml

In the case of C\C(=C/C=C/C=C/[C@H]1[C@@H](C)[C@H](O)[C@@H](O)[C@H]2[C@H](O)[C@@H](C)C[C@@H](C)[C@H]12)C(=O)O, the Activity (Staphylococcus aureus) is reported as “inactive”, the IC50 (Trypanosoma cruzi [1]) is reported as 46 µM and the Activity [2] is reported as “Non-Toxic”. For the same compound, the Activity [3] was “inactive”, the Activity [4] was “inactive” and the Activity (Escherichia coli) was “inactive”. The IC50 (Trypanosoma cruzi [5]) was 27 µM, the Activity (Trichophyton rubrum) was “inactive” and the Activity (Kocuria rhizophila) was “inactive”. The Activity (Candida albicans) was “inactive” and the Activity (Saccharomyces cerevisiae) was “inactive”.
